Measured values published in ChEMBL document CHEMBL1158401, “Development of CoMFA and CoMSIA models of affinity and selectivity for indole ligands of cannabinoid CB1 and CB2 receptors” (Eur J Med Chem, 2009).

Assays:
[1] = Selectivity ratio of pKi for CB1 receptor in rat brain to pKi for human cloned CB2 receptor; type: tissue-based
[2] = Selectivity ratio of pKi for human cloned CB2 receptor to pKi for CB1 receptor in rat brain; type: tissue-based
[3] = biological target: Cannabinoid receptor 1 (Rattus norvegicus, UniProt P20272); assay: Displacement of [3H]CP-55940 from CB1 receptor in rat brain by filtration assay; type: tissue-based
Cannabinoid receptor 1, sequence (P20272 whole entry): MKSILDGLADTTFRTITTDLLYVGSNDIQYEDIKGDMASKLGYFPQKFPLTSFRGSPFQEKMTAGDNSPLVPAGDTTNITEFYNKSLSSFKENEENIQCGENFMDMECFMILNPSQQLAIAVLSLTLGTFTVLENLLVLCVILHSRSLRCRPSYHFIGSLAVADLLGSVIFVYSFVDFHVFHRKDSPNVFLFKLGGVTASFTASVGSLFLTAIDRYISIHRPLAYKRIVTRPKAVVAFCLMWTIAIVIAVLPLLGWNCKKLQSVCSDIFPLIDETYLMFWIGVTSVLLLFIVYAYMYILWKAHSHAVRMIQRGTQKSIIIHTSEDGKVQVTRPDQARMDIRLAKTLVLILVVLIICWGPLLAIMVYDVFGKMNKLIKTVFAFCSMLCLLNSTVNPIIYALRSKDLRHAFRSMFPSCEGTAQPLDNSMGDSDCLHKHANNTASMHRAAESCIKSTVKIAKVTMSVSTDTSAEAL

[4] = biological target: Cannabinoid receptor 2 (Homo sapiens, UniProt P34972); assay: Displacement of [3H]CP-55940 from human cloned CB2 receptor by filtration assay
Cannabinoid receptor 2, sequence (P34972 whole entry): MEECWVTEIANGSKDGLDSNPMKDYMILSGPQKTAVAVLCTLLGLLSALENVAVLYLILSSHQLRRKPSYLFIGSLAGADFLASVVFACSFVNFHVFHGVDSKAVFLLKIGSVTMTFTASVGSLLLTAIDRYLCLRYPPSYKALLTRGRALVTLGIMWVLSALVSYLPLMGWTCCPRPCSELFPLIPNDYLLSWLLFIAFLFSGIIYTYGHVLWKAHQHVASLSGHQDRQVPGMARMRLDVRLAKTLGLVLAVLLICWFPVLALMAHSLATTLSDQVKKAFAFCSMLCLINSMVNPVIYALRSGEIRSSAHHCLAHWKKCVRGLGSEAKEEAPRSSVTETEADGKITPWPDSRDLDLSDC

For `CCCCCn1c(C)c(C(=O)Cc2ccc(OC)cc2)c2ccccc21`, the Ratio pKi [1] was 0.933 and the Ratio pKi [2] was 1.07.
Work on `CCCCCn1cc(C(=O)c2cccc3ccc(CC)cc23)c2ccccc21` yielded a Ratio pKi [1] of 0.959 and a Ratio pKi [2] of 1.04.
`CCCCCn1c(C)c(C(=O)Cc2ccccc2Cl)c2ccccc21` gave a Ratio pKi [1] of 1.04 and a Ratio pKi [2] of 0.963.
Compound `CCCCCn1cc(C(=O)Cc2cccc(OC)c2)c2ccccc21` has a Ratio pKi [1] of 1.1 and a Ratio pKi [2] of 0.907.
Compound `CCCCCn1c(C)c(C(=O)c2ccc(OC)c3ccccc23)c2ccccc21` has a Ratio pKi [1] of 0.957, a Ki [3] of 4.51 nM and a Ki [4] of 1.9 nM. The Ratio pKi [2] was 1.04.
With `CCCCCn1c(C)c(C(=O)c2cccc3ccccc23)c2ccccc21` the Ratio pKi [1] was 0.94, the Ki [3] was 9.51 nM and the Ki [4] was 2.9 nM. It also gave a Ratio pKi [2] of 1.06.
For `CCCCCn1c(C)c(C(=O)c2cccc3ccc(OC)cc23)c2ccccc21`, the Ratio pKi [1] was 0.92 and the Ratio pKi [2] was 1.09.
For `CCCn1cc(C(=O)c2ccc(OCC)c3ccccc23)c2ccccc21`, the Ratio pKi [1] was 0.934 and the Ratio pKi [2] was 1.07.
For `CCCCCn1c(C)c(C(=O)Cc2ccccc2F)c2ccccc21`, the Ratio pKi [1] was 1.04 and the Ratio pKi [2] was 0.96.
Compound `CCCCCn1c(C)c(C(=O)c2ccc(CCCC)c3ccccc23)c2ccccc21` has a Ratio pKi [1] of 0.901 and a Ratio pKi [2] of 1.11.
Compound `CCCCCn1cc(C(=O)Cc2ccccc2Br)c2ccccc21` has a Ratio pKi [1] of 1.05 and a Ratio pKi [2] of 0.953.
Work on `CCCCCn1cc(C(=O)c2cccc3ccccc23)c2ccccc21` yielded a Ratio pKi [1] of 0.942, a Ki [3] of 9.02 nM and a Ki [4] of 2.9 nM. It also gave a Ratio pKi [2] of 1.06.
With `CCCn1cc(C(=O)c2ccc(OC)c3ccccc23)c2ccccc21` the Ratio pKi [1] was 0.961, the Ki [3] was 63.1 nM and the Ki [4] was 32 nM. For the same compound, the Ratio pKi [2] was 1.04.
`CCCCCn1cc(C(=O)c2ccc(C)c3ccccc23)c2ccccc21` showed a Ratio pKi [1] of 1.03, a Ki [3] of 0.69 nM and a Ratio pKi [2] of 0.973.
With `CCCCCn1cc(C(=O)Cc2cccc(Cl)c2)c2ccccc21` the Ratio pKi [1] was 1.06 and the Ratio pKi [2] was 0.939.
With `CCCCc1ccc(C(=O)c2cn(CCC)c3ccccc23)c2ccccc12` the Ratio pKi [1] was 0.888 and the Ratio pKi [2] was 1.13.
In the case of `CCCCCn1c(C)c(C(=O)Cc2cccc(F)c2)c2ccccc21`, the Ratio pKi [1] is reported as 0.945 and the Ratio pKi [2] is reported as 1.06.
For `CCCn1cc(C(=O)c2cccc3ccc(C)cc23)c2ccccc21`, the Ratio pKi [1] was 0.956 and the Ratio pKi [2] was 1.04.
In the case of `CCCn1c(C)c(C(=O)c2ccc(OC)c3ccccc23)c2ccccc21`, the Ratio pKi [1] is reported as 0.901, the Ki [3] is reported as 476 nM and the Ki [4] is reported as 97.1 nM. It also gave a Ratio pKi [2] of 1.11.
In the case of `CCCn1cc(C(=O)c2cccc3ccc(CC)cc23)c2ccccc21`, the Ratio pKi [1] is reported as 0.936 and the Ratio pKi [2] is reported as 1.07.
With `CCCCCn1c(C)c(C(=O)Cc2ccccc2OC)c2ccccc21` the Ratio pKi [1] was 1.07 and the Ratio pKi [2] was 0.932.
Work on `CCCCCn1c(C)c(C(=O)Cc2cccc(Cl)c2)c2ccccc21` yielded a Ratio pKi [1] of 1.01 and a Ratio pKi [2] of 0.989.
In the case of `CCCCCn1cc(C(=O)Cc2ccccc2OC)c2ccccc21`, the Ratio pKi [1] is reported as 1.06 and the Ratio pKi [2] is reported as 0.94.
With `CCCCCn1c(C)c(C(=O)Cc2ccccc2C)c2ccccc21` the Ratio pKi [1] was 0.989 and the Ratio pKi [2] was 1.01.
`CCCCc1ccc(C(=O)c2c(C)n(CCC)c3ccccc23)c2ccccc12` showed a Ratio pKi [1] of 0.935 and a Ratio pKi [2] of 1.07.
`CCCn1cc(C(=O)c2ccc(C)c3ccccc23)c2ccccc21` showed a Ratio pKi [1] of 0.728 and a Ratio pKi [2] of 1.37.
With `CCCCCn1c(C)c(C(=O)Cc2ccc(Cl)cc2)c2ccccc21` the Ratio pKi [1] was 1.07 and the Ratio pKi [2] was 0.936.
`CCCCCn1c(C)c(C(=O)c2cccc3cc(OC)ccc23)c2ccccc21` gave a Ratio pKi [1] of 0.83 and a Ratio pKi [2] of 1.21.
`CCCCCn1c(C)c(C(=O)c2cccc3ccc(C)cc23)c2ccccc21` gave a Ratio pKi [1] of 0.856, a Ki [3] of 10.7 nM and a Ki [4] of 0.49 nM. For the same compound, the Ratio pKi [2] was 1.17.
For `CCCCCn1cc(C(=O)Cc2ccccc2C)c2ccccc21`, the Ratio pKi [1] was 1.1 and the Ratio pKi [2] was 0.906.
`CCCCCn1c(C)c(C(=O)c2c(OC)ccc3ccccc23)c2ccccc21` showed a Ratio pKi [1] of 0.792 and a Ratio pKi [2] of 1.26.
`CCCc1ccc(C(=O)c2cn(CCC)c3ccccc23)c2ccccc12` showed a Ratio pKi [1] of 0.946 and a Ratio pKi [2] of 1.06.
For `CCCn1c(C)c(C(=O)c2cccc3ccc(OC)cc23)c2ccccc21`, the Ratio pKi [1] was 0.913 and the Ratio pKi [2] was 1.09.
Work on `CCCCCn1c(C)c(C(=O)c2cccc3ccc(CC)cc23)c2ccccc21` yielded a Ratio pKi [1] of 0.915 and a Ratio pKi [2] of 1.09.
In the case of `CCCCCn1cc(C(=O)c2cccc3cc(OC)ccc23)c2ccccc21`, the Ratio pKi [1] is reported as 0.843 and the Ratio pKi [2] is reported as 1.19.
`CCCCCn1cc(C(=O)c2ccc(OCC)c3ccccc23)c2ccccc21` gave a Ratio pKi [1] of 1.04 and a Ratio pKi [2] of 0.957.
`CCCCCn1c(C)c(C(=O)Cc2ccccc2)c2ccccc21` showed a Ratio pKi [1] of 1.02 and a Ratio pKi [2] of 0.976.
In the case of `CCCCCn1cc(C(=O)Cc2ccc(F)cc2)c2ccccc21`, the Ratio pKi [1] is reported as 0.99 and the Ratio pKi [2] is reported as 1.01.
With `CCCn1c(C)c(C(=O)c2cccc3ccc(C)cc23)c2ccccc21` the Ratio pKi [1] was 0.829, the Ki [3] was 344 nM and the Ki [4] was 16 nM. For the same compound, the Ratio pKi [2] was 1.21.
With `CCCCCn1cc(C(=O)c2ccc(CCCC)c3ccccc23)c2ccccc21` the Ratio pKi [1] was 0.964 and the Ratio pKi [2] was 1.04.
In the case of `CCCCCn1cc(C(=O)Cc2ccc(OC)cc2)c2ccccc21`, the Ratio pKi [1] is reported as 0.94 and the Ratio pKi [2] is reported as 1.06.
With `CCCCCn1cc(C(=O)c2ccc(CC)c3ccccc23)c2ccccc21` the Ratio pKi [1] was 1.02 and the Ratio pKi [2] was 0.981.
`CCCCCn1c(C)c(C(=O)Cc2ccc(C)cc2)c2ccccc21` showed a Ratio pKi [1] of 1.04 and a Ratio pKi [2] of 0.957.
Compound `CCCCCn1cc(C(=O)Cc2cccc(F)c2)c2ccccc21` has a Ratio pKi [1] of 1.01 and a Ratio pKi [2] of 0.985.
In the case of `CCCCCn1cc(C(=O)Cc2ccc(Cl)cc2)c2ccccc21`, the Ratio pKi [1] is reported as 1.02 and the Ratio pKi [2] is reported as 0.983.
In the case of `CCCCCn1cc(C(=O)c2ccc(OC)c3ccccc23)c2ccccc21`, the Ratio pKi [1] is reported as 1.13, the Ki [3] is reported as 1.2 nM and the Ki [4] is reported as 12.4 nM. It also gave a Ratio pKi [2] of 0.886.
Work on `CCCn1cc(C(=O)c2ccc(CC)c3ccccc23)c2ccccc21` yielded a Ratio pKi [1] of 0.935 and a Ratio pKi [2] of 1.07.
`CCCCCn1cc(C(=O)c2ccc(CCC)c3ccccc23)c2ccccc21` gave a Ratio pKi [1] of 1.02 and a Ratio pKi [2] of 0.975.
`CCCCCn1cc(C(=O)Cc2ccccc2F)c2ccccc21` gave a Ratio pKi [1] of 1.03 and a Ratio pKi [2] of 0.969.
Compound `CCCn1c(C)c(C(=O)c2ccc(OCC)c3ccccc23)c2ccccc21` has a Ratio pKi [1] of 0.919 and a Ratio pKi [2] of 1.09.
Compound `CCCn1cc(C(=O)c2cccc3ccccc23)c2ccccc21` has a Ratio pKi [1] of 0.883, a Ki [3] of 1050 nM and a Ki [4] of 170 nM. For the same compound, the Ratio pKi [2] was 1.13.
`CCCCCn1c(C)c(C(=O)Cc2ccccc2Br)c2ccccc21` showed a Ratio pKi [1] of 1.04 and a Ratio pKi [2] of 0.963.
For `CCCCCn1c(C)c(C(=O)c2ccc(CCC)c3ccccc23)c2ccccc21`, the Ratio pKi [1] was 0.965 and the Ratio pKi [2] was 1.04.
Compound `CCCCCn1c(C)c(C(=O)c2ccc(CC)c3ccccc23)c2ccccc21` has a Ratio pKi [1] of 0.941 and a Ratio pKi [2] of 1.06.
With `CCCn1cc(C(=O)c2cccc3cc(OC)ccc23)c2ccccc21` the Ratio pKi [1] was 0.82 and the Ratio pKi [2] was 1.22.
For `CCCn1c(C)c(C(=O)c2ccc(C)c3ccccc23)c2ccccc21`, the Ratio pKi [1] was 0.88 and the Ratio pKi [2] was 1.14.
With `CCCCCn1cc(C(=O)Cc2ccc(C)cc2)c2ccccc21` the Ratio pKi [1] was 1.08 and the Ratio pKi [2] was 0.925.
`CCCCCn1cc(C(=O)c2cccc3ccc(OC)cc23)c2ccccc21` showed a Ratio pKi [1] of 1 and a Ratio pKi [2] of 0.997.
For `CCCCCn1c(C)c(C(=O)c2ccc(C)c3ccccc23)c2ccccc21`, the Ratio pKi [1] was 0.909, the Ki [3] was 5 nM and the Ratio pKi [2] was 1.1.
`CCCn1c(C)c(C(=O)c2ccc(CC)c3ccccc23)c2ccccc21` showed a Ratio pKi [1] of 0.903 and a Ratio pKi [2] of 1.11.
With `CCCn1c(C)c(C(=O)c2cccc3ccc(CC)cc23)c2ccccc21` the Ratio pKi [1] was 0.887 and the Ratio pKi [2] was 1.13.
`CCCn1cc(C(=O)c2cccc3ccc(OC)cc23)c2ccccc21` gave a Ratio pKi [1] of 0.936 and a Ratio pKi [2] of 1.07.
With `CCCCCn1c(C)c(C(=O)c2ccc(OCC)c3ccccc23)c2ccccc21` the Ratio pKi [1] was 0.991 and the Ratio pKi [2] was 1.01.
Compound `CCCCCn1cc(C(=O)Cc2ccc(Br)cc2)c2ccccc21` has a Ratio pKi [1] of 0.969.
With `CCCCCn1cc(C(=O)c2c(OC)ccc3ccccc23)c2ccccc21` the Ratio pKi [1] was 0.788 and the Ratio pKi [2] was 1.27.
`CCCc1ccc(C(=O)c2c(C)n(CCC)c3ccccc23)c2ccccc12` gave a Ratio pKi [1] of 0.919 and a Ratio pKi [2] of 1.09.
`CCCCCn1cc(C(=O)Cc2ccccc2Cl)c2ccccc21` gave a Ratio pKi [1] of 0.993 and a Ratio pKi [2] of 1.01.
For `CCCCCn1c(C)c(C(=O)Cc2cccc(OC)c2)c2ccccc21`, the Ratio pKi [1] was 1.02 and the Ratio pKi [2] was 0.981.
In the case of `CCCn1cc(C(=O)c2c(OC)ccc3ccccc23)c2ccccc21`, the Ratio pKi [1] is reported as 0.764 and the Ratio pKi [2] is reported as 1.31.
With `CCCCCn1cc(C(=O)Cc2ccccc2)c2ccccc21` the Ratio pKi [1] was 1.04 and the Ratio pKi [2] was 0.964.
